| Structure (SMILES) | melting point |
| --- | --- |
| CCOC(=O)C1=CC(C(=O)c2cc(Br)ccc2O)=CN2CCc3c([nH]c4ccccc34)C12C(=O)OCC (configuration not stated) | 215 °C |
| O=C(SC1CCC1C(=O)N1CCC[C@H]1C(=O)O)c1ccccc1 (some centres not stated) | 123 to 124 °C |
| COc1cc(OCC(=O)N(C)C)c(/C=C/C(=O)c2ccc(C(=O)O)cc2)cc1-c1cccs1 | 197 to 198 °C |
| Cc1cc(O)cc(C)c1-c1cccc2c1Oc1ccccc1S2 | 116 °C |
| CCCNC(=O)CC1(C)Cc2c(C)c(N3CCN(c4ccc(OC)cc4)CC3)c(C)c(C)c2O1 (configuration not stated) | 135 to 138 °C |
| O=C(/C=C/c1c[nH]c2ccc(OCc3ccccc3)cc12)c1ccncc1 | 218 to 221 °C |
| CCC(C)N(C)C(=O)c1cc(-c2ccccc2F)c2sccc2c1 (configuration not stated) | 89 °C |
| OC(CCCN1CC=C(c2ccc(Cl)cc2)CC1)c1ccc(Cc2ccc(Cl)cc2)cc1 (configuration not stated) | 104 to 105 °C |
| CCOC(=O)C1=C(C(=O)O)CC(C(=O)O)([N+](=O)[O-])C=C1 (configuration not stated) | 189 to 191 °C |
| O=c1cc(-c2ccsc2)c2ccc(CCl)cc2o1 | 125 to 127 °C |
| N#CCc1nn(-c2ccccn2)c(N)c1C#N | 178 to 179 °C |
| O=C=NCc1cccnc1 | 141 to 146 °C |
| COC(=O)c1cn(C(c2ccccc2)(c2ccccc2)c2ccccc2)cn1 | 147 to 152 °C |
| CC(C)c1cccc(C(C)C)c1NC(=O)CNC(c1ccc(F)cc1)c1ccc(F)cc1 | 150 to 151 °C |
| COc1ccc2c(c1)cc(-c1nnn(Cc3cccc(OCc4ccc5ccccc5n4)c3)n1)c(=O)n2C | 125 to 127 °C |
| Cn1c(=O)c2c(ncn2CC(=O)Nc2ccc(-n3nc(C(F)(F)F)cc3C3CC3)cc2)n(C)c1=O | 178 to 184 °C |
| CCOCc1nc2c(N)nc3cccnc3c2n1CCCCCC(=O)N1CCOCC1 | 168 to 170 °C |
| COc1ccc(-c2cccc3c2C(=O)OC(C)(C)O3)cn1 | 160 °C |
| Cc1cccc(NC(=O)N(C)c2nc(-c3ccccc3)c(-c3ccc(=O)n(C(C)C)n3)s2)c1 | 157 to 158 °C |
| CCC1CCCCc2c1oc(=O)c(C(c1ccccc1)C1CC1)c2O (configuration not stated) | 63 to 71 °C |
| CCOC(=O)C(=Cc1ccco1)c1csc(N)n1 | 109 to 110 °C |
| CC(=O)c1ccc(/C=C(\C)c2ccc3c(c2)C(C)(C)CC3(C)C)cc1 | 130 to 131 °C |
| CC(C)(C)OC(=O)CN1CCN(c2ccncc2)C1=O | 147 to 148 °C |
| O=c1cnc(-c2cc(-c3ccsc3)cc(-c3ccsc3)c2)nn1CC(F)(F)F | 189 to 191 °C |
| COC(=O)c1csc2nc(N)sc12 | 221 to 223 °C |

| Structure (SMILES) | melting point |
| --- | --- |
| CN1Cc2c(Cl)cc(F)c(-n3c(=O)cc(C(F)(F)F)n(C)c3=O)c2O1 | 218 to 219 °C |
| CCOc1cc2c(cc1OCC)C1(CCC(C(=O)O)(C(=O)O)CC1)N(C(=O)OCc1ccccc1)CC2 | 175 to 176 °C |
| CC(C)(C)OC(=O)COc1ccc(NC(=O)NC(=O)c2ccc(C#N)nc2)cc1 | 220 to 222 °C |
| Cn1nc(C(F)(F)F)cc1Oc1cc(C#N)cc(-n2ccc(C(F)(F)F)n2)c1 | 116 to 117 °C |
| COc1cc2c(cc1OC)C(Cc1cc(I)c(I)c(I)c1)N(C(=O)C(F)(F)F)CC2 (configuration not stated) | 215 to 216 °C |
| Cc1ccc2c(S(C)(=O)=O)cn(CC3=NCCN3)c2c1 | > 300 °C |
| CC1(C)C(=O)N(c2ccccc2)C(=S)N1c1ccc(OCc2ccccc2)cc1 | 208 to 210 °C |
| N#CCC(=O)Nc1cc(N)ccc1[N+](=O)[O-] | 218 to 220 °C |
| O=C(NC(CC1CCCC1)C(=O)NC1CCCN(S(=O)(=O)c2ccccc2)CC1=O)c1ccco1 (configuration not stated) | 88 to 90 °C |
| c1csc(-c2ccc(-c3cccs3)nc2)c1 | 150 °C |
| CC(C)(C)OC(=O)COCCC1CCN(c2cnc(-c3ccccc3)c(-c3ccccc3)n2)CC1 | 104 to 106 °C |
| CCCN(CCC)c1ccc(S(=O)(=O)N2CCCCC2=O)cc1 | 105 to 108 °C |
| CCNC=C(C(=O)C=Cc1cccnc1)C(=O)OC | 78 to 80 °C |
| COC(=O)NC(C)(C)c1ccc(CC#N)cc1 | 88 to 90 °C |
| Cc1cc(N2CCN(C(=O)c3ccc(Nc4ccnc5cc(C(F)(F)F)ccc45)cc3)CC2)nc(N)n1 | 283 to 286 °C |
| CC(C)(C)c1cc(CCc2ccccc2NC(=O)N2CCN(C(=O)c3ccccc3)CC2)cc(C(C)(C)C)c1O | 207 to 209 °C |
| O=c1oc(-c2ccccc2F)nc2c(Cl)ccc(Cl)c12 | 140 °C |
| O=c1[nH]c2cc(C(F)(F)F)cc3c2n(c1=O)C(P(=O)(O)O)CC3 (configuration not stated) | 262 °C |
| ON=Cc1ccc(-c2ccc(O)cc2)c2ccoc12 | 219 to 220 °C |
| COc1ccc(CC(=O)c2ccc(OCc3ccccc3)cc2O)cc1 | 97 to 98 °C |
| Cc1ccc(C#N)c(NC(C)C)c1 | 55 to 57 °C |
| c1cc(CN2CCCCC2)cc(OCCCNc2nc3ccccc3[nH]2)c1 | 146 to 148 °C |
| CC12CCC3c4ccc(O)cc4CC(Sc4ccc(O)cc4)C3C1CCC2O (configuration not stated) | 140 to 145 °C |
| O=C1c2ccccc2-n2cnc(-c3nc(CCl)cs3)c2[C@@H]2CCN12 | 248 to 249 °C |
| Cc1c(C)c2c(c(C)c1NC(=O)NCCO)C(c1ccc(C(C)C)cc1)CO2 (configuration not stated) | 186 to 188 °C |

| Structure (SMILES) | melting point |
| --- | --- |
| COc1cccc(Cc2ccc3[nH]c4cnn(C)c4c(=O)c3c2)c1 | 246 to 250 °C |
| CN1CCN(c2nccc(Oc3ccc(NC(=O)c4cc(F)cc(N5CCOCC5)c4)c4ccccc34)n2)CC1 | 195 to 197 °C |
| CCOC(=O)c1cc(S(=O)(=O)N2c3ccccc3-c3ccccc3C2C)ccc1OCC (configuration not stated) | 113 to 115 °C |
| CCOC(=O)C1CCc2c(c(C)nn2C)C1=O (configuration not stated) | 76.5 to 79 °C |
| O=c1[nH]c2cc(Cl)ccc2c(=O)n1S(=O)(=O)c1ccc([N+](=O)[O-])cc1 | > 250 °C |
| CNC(=O)c1ccccc1Nc1nc(Nc2c(OC)ccc3c2CCOC(=O)N3C)ncc1Cl | 160 °C |
| CCCCN(CCCC)c1ccc(C=CC=CC2=C(C#N)C(=C(C#N)C#N)OC2(C)C(F)(F)F)c(OC)c1 (configuration not stated) | 169 to 170 °C |
| Cc1nc2c([N+](=O)[O-])cc3nc(O)c(O)nc3c2nc1C | > 300 °C |
| CC(C)(C)C(=O)Nc1cccc(-c2ccnc3c(C(=O)c4ccccc4)cnn23)c1 | 160 to 161 °C |
| O=S(=O)(NCC(O)(Cn1cncn1)c1ccc(Cl)cc1Cl)c1ccc(Cl)cc1 (configuration not stated) | 182 to 183 °C |
| O=CN(CCOc1ccc2ccccc2c1)c1ccc(C(=O)C(=O)O)cc1 | 155 to 156 °C |
| O=C(O)c1ccn2c1C(c1cccnc1)CC2 (configuration not stated) | 210 °C |
| Nc1cc(N2CC(CCc3ccccc3)OC2=O)ccn1 (configuration not stated) | 143 to 144 °C |
| CON=Cc1ccc2c(c1)ncn2-c1cccc(Br)c1 | 119 to 120 °C |
| Cc1nn(-c2cc(Oc3ccc(OC(C)C(=O)O)cn3)c(Cl)cc2F)c(=O)n1C(F)F (configuration not stated) | 49 to 51 °C |
| Cc1ccc(S(=O)(=O)N(C(N)=O)c2cccc(Br)n2)cc1 | > 310 °C |
| COC(=O)Cc1c(C(=O)OC)ccn1CCI | 137 to 138 °C |
| CC(C)c1cccc(C(C)C)c1NC(=O)N(Cc1ccc(O)cc1)CC1(c2c[nH]cn2)CCCCC1 | 185 to 188 °C |
| CC1CN(c2ncc(Br)cc2C=O)CC1C (configuration not stated) | 98.5 to 99.5 °C |
| CC(=O)NC12Oc3cc(C(C)C)ccc3C1(O)C(=O)c1c(N)cccc12 (configuration not stated) | 278 to 280 °C |
| O=[N+]([O-])c1cccc(C2=NCc3n[nH]nc3-c3ccccc32)c1 | 223 to 225 °C |
| CC(C)(CO)c1ccc(C(=O)Nc2cn3cc(-c4ccsc4)ccc3n2)cc1 | 250 to 252 °C |
| CCCn1nc2c(N)nc3ccccc3c2c1CC(C)(C)OCCS(C)(=O)=O | 197 to 200 °C |
| CC(C)COc1ccc2c(n1)CC(c1ccccc1)CC2=O (configuration not stated) | 157 to 158 °C |
| CCC(O)C1CCNCC1 (configuration not stated) | 50 °C |

| Structure (SMILES) | melting point |
| --- | --- |
| CN1CCNC(C(=O)Cn2c(-c3cc(Cl)ccn3)nc3cccnc32)C1 (configuration not stated) | 174 to 175 °C |
| C=C(C)C(=O)OCCCCc1cc(-c2ccc(OC(=O)C(=C)C)cc2)ccc1OC(=O)C(=C)C | 76 °C |
| CC(C)(C)c1nc(C#N)nc(C(C)(C)C)c1O | 203 to 205 °C |
| O=C(c1cccnc1Cl)N(O)C1CCCCC1 | 151 to 153 °C |
| CN(C)c1ccc(C(=O)NC(=O)Nc2ccc3c(c2)NC(=O)/C3=C\c2ccc[nH]2)cc1 | 285 to 290 °C |
| CN1[C@@H](c2cccc(Cl)c2)c2ccccc2S1(=O)=O | 164 °C |
| Cc1nccc(C(=O)O)c1-c1nc(-c2ccc(Cl)cc2)cs1 | 92 to 94 °C |
| CCOC(=O)C(C#N)=Cc1c(Cl)n(Cc2cccc(Cl)c2)c2ccccc12 | 130 to 132 °C |
| O=C(Cn1nnc2ccccc21)Nc1ccc(-n2nc(C(F)(F)F)cc2C2CC2)nc1 | 189 to 192 °C |
| CCN(CC)c1ccc(C(=O)c2c(Cl)c(Cl)c(Cl)c(Cl)c2C(=O)O)c(C)c1 | 179 to 181 °C |
| CCOC(=O)C(C)(Cc1cccnc1)S(=O)(=O)c1ccc(OC)cc1 (configuration not stated) | 58 °C |
| COc1cc(Nc2c(C#N)cnc3cc(-c4cccc5ccccc45)ccc23)c(Cl)cc1Cl | 192 to 193 °C |
| CC(C)(C)OC(=O)N1CCC(c2c(F)cc(N3C[C@H](COS(C)(=O)=O)OC3=O)cc2F)CC1 | 125 to 126 °C |
| Cn1cc(C(=O)O)c(=O)c2c3cc(F)c(N4CCCC4)cc3ncc21 | 365 °C |
| NC(=O)C1CCN(c2ncncc2Cl)CC1 | 201 to 202 °C |
| CC1=NN(C)C(=O)C1(Cl)C(=O)c1cc(C)ccc1[N+](=O)[O-] (configuration not stated) | 110 to 111 °C |
| Cc1cncc(C)c1-c1c(C)cc(C=Cc2ccc(C(C#N)C#N)cc2)cc1C | 58 to 60 °C |
| O=C(O)CCc1ccc(CCNS(=O)(=O)c2ccc(Cl)cc2)s1 | 127 to 130 °C |
| Cn1c(=O)c2c3oc4ccccc4oc3c3[nH]c4cc(O)ccc4c3c2c1=O | 360 °C |
| CC(C)(O)C(=O)c1ccc(C(O)c2ccc(C(=O)C(C)(C)O)cc2)cc1 | 130 °C |
| CC(C)=CCOc1ccc2c(=O)c(C)c(-c3ccccc3)oc2c1C(=O)C=Cc1cccs1 | 158 to 160 °C |
| COC(=O)C1=C(C)NC(=O)N(C)C1c1cccc(N)c1 (configuration not stated) | 205 to 209 °C |

From a melting point compilation (Tetko et al.; mined from patent text by program, amines drawn as free bases though some values may be those of a salt)
